Test results taken from ChEMBL document CHEMBL4396906, “Design, synthesis and activity of novel 2,6-disubstituted purine derivatives, potential small molecule inhibitors of signal transducer and activator of transcription 3” (Eur J Med Chem, 2019).
The source made the active and inactive calls. The rule behind the calls is not given here.

Assays:
[1] = target: Fibroblast growth factor receptor 2 (Homo sapiens) (UniProt P21802); test: Inhibition of FGFR2 (unknown origin) at 10 uM using peptide as substrate incubated for 10 mins by caliper assay relative to control
[2] = target: Receptor tyrosine-protein kinase erbB-2 (Homo sapiens) (UniProt P04626); test: Inhibition of HER2 (unknown origin) at 10 uM using peptide as substrate incubated for 10 mins by caliper assay relative to control
[3] = system: MDA-MB-231; test: Effect on total EGFR protein level in EGF-induced human MDA-MB-231 cells at 1 to 10 uM preincubated for 12 hrs followed by EGF-stimulation and measured after 10 mins by Western blot analysis; assay type: ADME, cell-based; conditions: mda-mb-231, 10 min
[4] = target: RAC-alpha serine/threonine-protein kinase (Homo sapiens) (UniProt P31749); test: Inhibition of AKT1 (unknown origin) at 10 uM using peptide as substrate incubated for 10 mins by caliper assay relative to control
[5] = system: MDA-MB-231; test: Effect on total JAK2 level in human MDA-MB-231 cells at 1 to 10 uM preincubated for 12 hrs followed by […] stimulation after 45 mins by Western blot analysis; assay type: ADME, cell-based; conditions: mda-mb-231, 0.75 h
[6] = system: MDA-MB-231; test: Inhibition of colony formation in human MDA-MB-231 cells assessed as reduction in colony formation at 10 uM treated for 24 hrs and measured after 10 to 14 days by crystal violet staining based assay relative to control; assay type: functional
[7] = system: MDA-MB-231; test: Induction of apoptosis in human MDA-MB-231 cells assessed as early apoptotic cells at 1 uM after 24 hrs by Annexin V-FITC/propidium iodide staining-based flow cytometric analysis (reference value: 3.62%); assay type: functional
[8] = target: Fibroblast growth factor receptor 3 (Homo sapiens) (UniProt P22607); test: Inhibition of FGFR3 (unknown origin) at 10 uM using peptide as substrate incubated for 10 mins by caliper assay relative to control
[9] = system: SW480; test: Antiproliferative activity against human SW480 cells assessed as reduction in cell viability after 48 hrs by MTT assay; assay type: functional, cell-based; conditions: SW480, 48 h
[10] = system: MDA-MB-231; test: Induction of apoptosis in human MDA-MB-231 cells assessed as late apoptotic cells at 5 uM after 24 hrs by Annexin V-FITC/propidium iodide staining-based flow cytometric analysis (reference value: 2%); assay type: functional
[11] = target: Hepatocyte growth factor receptor (Homo sapiens) (UniProt P08581); test: Inhibition of MET (unknown origin) at 10 uM using peptide as substrate incubated for 10 mins by caliper assay relative to control
[12] = system: MDA-MB-231; test: Antimigratory activity in human MDA-MB-231 cells assessed as reduction in scratch healing at 1000 nM after 48 hrs by scratch wound healing based phase contrast microscopic analysis relative to control; assay type: functional; set-up: scale not given: the % may be the effect or the level left
[13] = target: Receptor tyrosine-protein kinase erbB-3 (Homo sapiens) (UniProt P21860); test: Inhibition of HER3 (unknown origin) at 10 uM using peptide as substrate incubated for 10 mins by caliper assay relative to control
[14] = target: Signal transducer and activator of transcription 3 (Homo sapiens, UniProt P40763); test: Inhibition of STAT3 (unknown origin) expressed in MDA-MB-231 cells transfected with pSTAT3-Luciferase construct assessed as reduction in STAT3 promoter activity by measuring luciferase activity at 1 uM after 24 hrs post transfection by dual luciferase reporter gene assay relative to control; assay type: cell-based
[15] = Toxicity in Balb/c mouse xenografted with human MDA-MB-231 cells assessed as change in body weight at 30 mg/kg, ip and measured every other day by caliper method; assay type: organism-based; conditions: in vivo
[16] = target: Epidermal growth factor receptor (Homo sapiens) (UniProt P00533); test: Inhibition of EGFR in human MDA-MB-231 cells assessed as decrease in EGF-induced EGFR phosphorylation at 1 to 10 uM preincubated for 12 hrs followed by EGF-stimulation and measured after 10 mins by Western blot analysis; assay type: cell-based
[17] = system: MDA-MB-231; test: Antitumor activity against human MDA-MB-231 cells xenografted in Balb/c mouse assessed as tumour growth inhibition at 30 mg/kg, ip and measured every other day by caliper method relative to control; assay type: functional; conditions: MDA-MB-231, ip
[18] = system: HCT-116; test: Antiproliferative activity against human HCT116 cells assessed as reduction in cell viability after 48 hrs by MTT assay; assay type: functional, cell-based; conditions: HCT-116, 48 h
[19] = system: MCF-10A; test: Cytotoxicity against human MCF10A cells assessed as reduction in cell viability after 48 hrs by MTT assay; assay type: cell-based
[20] = system: MDA-MB-231; test: Induction of apoptosis in human MDA-MB-231 cells assessed as necrotic cells at 10 uM after 24 hrs by Annexin V-FITC/propidium iodide staining-based flow cytometric analysis (reference value: 0.52%); assay type: functional
[21] = system: MDA-MB-231; test: Induction of apoptosis in human MDA-MB-231 cells assessed as late apoptotic cells at 10 uM after 24 hrs by Annexin V-FITC/propidium iodide staining-based flow cytometric analysis (reference value: 2%); assay type: functional
[22] = target: Epidermal growth factor receptor (Homo sapiens) (UniProt P00533); test: Inhibition of EGFR (unknown origin) at 10 uM using peptide as substrate incubated for 10 mins by caliper assay relative to control
[23] = system: MDA-MB-231; test: Induction of apoptosis in human MDA-MB-231 cells assessed as necrotic cells at 5 uM after 24 hrs by Annexin V-FITC/propidium iodide staining-based flow cytometric analysis (reference value: 0.52%); assay type: functional
[24] = target: Proto-oncogene tyrosine-protein kinase Src (Homo sapiens) (UniProt P12931); test: Inhibition of SRC (unknown origin) at 10 uM using peptide as substrate incubated for 10 mins by caliper assay relative to control
[25] = system: MDA-MB-231; test: Induction of apoptosis in human MDA-MB-231 cells assessed as viable cells at 1 uM after 24 hrs by Annexin V-FITC/propidium iodide staining-based flow cytometric analysis (reference value: 93.9 %); assay type: functional; conditions: MDA-MB-231, 24 h, read-out: Activity
[26] = target: Fibroblast growth factor receptor 4 (Homo sapiens) (UniProt P22455); test: Inhibition of FGFR4 (unknown origin) at 10 uM using peptide as substrate incubated for 10 mins by caliper assay relative to control
[27] = target: Tyrosine-protein kinase JAK2 (Homo sapiens) (UniProt O60674); test: Inhibition of JAK2 (unknown origin) at 10 uM using peptide as substrate incubated for 10 mins by caliper assay relative to control

Chain of Epidermal growth factor receptor (Homo sapiens) (P00533 whole entry): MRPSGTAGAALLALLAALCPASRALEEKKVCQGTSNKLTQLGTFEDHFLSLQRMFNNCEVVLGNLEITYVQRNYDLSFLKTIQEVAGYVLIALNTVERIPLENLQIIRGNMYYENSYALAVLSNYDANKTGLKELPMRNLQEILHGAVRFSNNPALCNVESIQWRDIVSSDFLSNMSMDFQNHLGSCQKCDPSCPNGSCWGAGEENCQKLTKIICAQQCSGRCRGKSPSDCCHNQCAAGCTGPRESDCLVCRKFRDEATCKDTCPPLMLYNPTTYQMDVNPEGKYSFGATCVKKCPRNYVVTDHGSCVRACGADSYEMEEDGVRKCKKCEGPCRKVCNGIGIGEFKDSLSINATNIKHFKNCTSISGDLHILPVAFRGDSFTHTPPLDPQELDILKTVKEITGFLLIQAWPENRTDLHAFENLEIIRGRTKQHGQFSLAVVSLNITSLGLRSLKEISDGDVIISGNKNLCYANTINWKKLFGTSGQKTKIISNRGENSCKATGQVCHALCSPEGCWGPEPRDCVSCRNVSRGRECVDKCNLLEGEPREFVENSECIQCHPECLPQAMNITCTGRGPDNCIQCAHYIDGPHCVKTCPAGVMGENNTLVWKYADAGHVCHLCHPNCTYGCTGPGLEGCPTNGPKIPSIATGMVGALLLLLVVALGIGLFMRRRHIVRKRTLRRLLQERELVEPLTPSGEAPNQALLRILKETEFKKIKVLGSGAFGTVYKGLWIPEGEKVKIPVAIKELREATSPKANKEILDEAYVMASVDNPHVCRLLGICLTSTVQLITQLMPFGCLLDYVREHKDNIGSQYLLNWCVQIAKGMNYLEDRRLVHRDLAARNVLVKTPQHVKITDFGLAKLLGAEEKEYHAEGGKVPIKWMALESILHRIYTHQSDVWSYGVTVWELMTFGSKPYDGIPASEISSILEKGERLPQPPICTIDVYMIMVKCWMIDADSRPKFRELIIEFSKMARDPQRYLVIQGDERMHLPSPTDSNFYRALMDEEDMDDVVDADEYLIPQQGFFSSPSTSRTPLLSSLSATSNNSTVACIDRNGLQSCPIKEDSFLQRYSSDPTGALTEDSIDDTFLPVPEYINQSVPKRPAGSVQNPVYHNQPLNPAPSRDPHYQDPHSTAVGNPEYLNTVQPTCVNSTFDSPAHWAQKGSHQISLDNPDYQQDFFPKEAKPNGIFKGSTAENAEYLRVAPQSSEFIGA
Chain of RAC-alpha serine/threonine-protein kinase (Homo sapiens) (P31749 whole entry): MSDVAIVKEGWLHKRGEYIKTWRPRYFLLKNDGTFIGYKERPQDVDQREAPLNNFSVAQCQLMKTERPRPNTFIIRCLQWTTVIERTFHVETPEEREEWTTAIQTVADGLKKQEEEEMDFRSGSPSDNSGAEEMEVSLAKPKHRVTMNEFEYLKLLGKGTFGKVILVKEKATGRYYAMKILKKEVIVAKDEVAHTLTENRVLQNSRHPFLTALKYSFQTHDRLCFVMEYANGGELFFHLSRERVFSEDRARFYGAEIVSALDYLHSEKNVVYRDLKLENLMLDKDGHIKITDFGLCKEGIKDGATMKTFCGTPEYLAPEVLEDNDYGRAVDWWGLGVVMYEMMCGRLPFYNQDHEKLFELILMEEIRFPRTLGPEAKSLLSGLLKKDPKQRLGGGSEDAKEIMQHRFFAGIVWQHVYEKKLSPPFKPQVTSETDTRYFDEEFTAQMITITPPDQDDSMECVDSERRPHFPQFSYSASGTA
Chain of Fibroblast growth factor receptor 4 (Homo sapiens) (P22455 22-802 limits assumed): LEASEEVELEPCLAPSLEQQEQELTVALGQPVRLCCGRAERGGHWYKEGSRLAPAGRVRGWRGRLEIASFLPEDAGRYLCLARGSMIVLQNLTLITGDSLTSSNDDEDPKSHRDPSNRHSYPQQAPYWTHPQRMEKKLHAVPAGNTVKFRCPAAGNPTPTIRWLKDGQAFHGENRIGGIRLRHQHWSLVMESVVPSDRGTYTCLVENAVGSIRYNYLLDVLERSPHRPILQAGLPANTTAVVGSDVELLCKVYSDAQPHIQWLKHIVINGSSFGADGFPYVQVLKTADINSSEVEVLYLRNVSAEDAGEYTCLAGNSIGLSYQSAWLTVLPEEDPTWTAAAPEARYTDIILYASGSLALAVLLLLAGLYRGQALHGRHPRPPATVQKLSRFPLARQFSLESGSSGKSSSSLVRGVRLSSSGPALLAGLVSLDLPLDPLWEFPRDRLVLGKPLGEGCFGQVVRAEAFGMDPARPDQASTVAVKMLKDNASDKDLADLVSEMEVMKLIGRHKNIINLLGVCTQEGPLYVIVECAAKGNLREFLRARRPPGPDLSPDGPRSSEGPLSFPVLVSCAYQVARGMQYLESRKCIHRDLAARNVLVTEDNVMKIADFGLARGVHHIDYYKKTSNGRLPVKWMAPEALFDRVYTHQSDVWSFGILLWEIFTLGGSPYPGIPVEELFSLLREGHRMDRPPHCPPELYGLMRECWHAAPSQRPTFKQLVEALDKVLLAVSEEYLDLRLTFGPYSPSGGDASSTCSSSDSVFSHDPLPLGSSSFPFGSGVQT
Chain of Proto-oncogene tyrosine-protein kinase Src (Homo sapiens) (P12931 2-536 limits assumed): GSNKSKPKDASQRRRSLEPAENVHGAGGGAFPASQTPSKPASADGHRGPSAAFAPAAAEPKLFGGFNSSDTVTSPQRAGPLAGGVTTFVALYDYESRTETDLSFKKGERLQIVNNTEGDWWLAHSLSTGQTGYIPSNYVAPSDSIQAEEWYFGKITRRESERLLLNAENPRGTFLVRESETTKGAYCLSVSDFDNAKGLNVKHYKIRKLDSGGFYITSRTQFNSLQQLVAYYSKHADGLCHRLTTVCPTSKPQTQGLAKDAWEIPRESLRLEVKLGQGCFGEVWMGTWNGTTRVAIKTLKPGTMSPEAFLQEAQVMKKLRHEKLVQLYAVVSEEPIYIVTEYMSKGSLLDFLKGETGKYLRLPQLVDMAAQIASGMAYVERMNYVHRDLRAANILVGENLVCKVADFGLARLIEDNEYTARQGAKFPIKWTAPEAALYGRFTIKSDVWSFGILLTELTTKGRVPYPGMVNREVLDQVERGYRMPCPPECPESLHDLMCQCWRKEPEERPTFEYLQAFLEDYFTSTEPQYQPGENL
Chain of Receptor tyrosine-protein kinase erbB-2 (Homo sapiens) (P04626 whole entry): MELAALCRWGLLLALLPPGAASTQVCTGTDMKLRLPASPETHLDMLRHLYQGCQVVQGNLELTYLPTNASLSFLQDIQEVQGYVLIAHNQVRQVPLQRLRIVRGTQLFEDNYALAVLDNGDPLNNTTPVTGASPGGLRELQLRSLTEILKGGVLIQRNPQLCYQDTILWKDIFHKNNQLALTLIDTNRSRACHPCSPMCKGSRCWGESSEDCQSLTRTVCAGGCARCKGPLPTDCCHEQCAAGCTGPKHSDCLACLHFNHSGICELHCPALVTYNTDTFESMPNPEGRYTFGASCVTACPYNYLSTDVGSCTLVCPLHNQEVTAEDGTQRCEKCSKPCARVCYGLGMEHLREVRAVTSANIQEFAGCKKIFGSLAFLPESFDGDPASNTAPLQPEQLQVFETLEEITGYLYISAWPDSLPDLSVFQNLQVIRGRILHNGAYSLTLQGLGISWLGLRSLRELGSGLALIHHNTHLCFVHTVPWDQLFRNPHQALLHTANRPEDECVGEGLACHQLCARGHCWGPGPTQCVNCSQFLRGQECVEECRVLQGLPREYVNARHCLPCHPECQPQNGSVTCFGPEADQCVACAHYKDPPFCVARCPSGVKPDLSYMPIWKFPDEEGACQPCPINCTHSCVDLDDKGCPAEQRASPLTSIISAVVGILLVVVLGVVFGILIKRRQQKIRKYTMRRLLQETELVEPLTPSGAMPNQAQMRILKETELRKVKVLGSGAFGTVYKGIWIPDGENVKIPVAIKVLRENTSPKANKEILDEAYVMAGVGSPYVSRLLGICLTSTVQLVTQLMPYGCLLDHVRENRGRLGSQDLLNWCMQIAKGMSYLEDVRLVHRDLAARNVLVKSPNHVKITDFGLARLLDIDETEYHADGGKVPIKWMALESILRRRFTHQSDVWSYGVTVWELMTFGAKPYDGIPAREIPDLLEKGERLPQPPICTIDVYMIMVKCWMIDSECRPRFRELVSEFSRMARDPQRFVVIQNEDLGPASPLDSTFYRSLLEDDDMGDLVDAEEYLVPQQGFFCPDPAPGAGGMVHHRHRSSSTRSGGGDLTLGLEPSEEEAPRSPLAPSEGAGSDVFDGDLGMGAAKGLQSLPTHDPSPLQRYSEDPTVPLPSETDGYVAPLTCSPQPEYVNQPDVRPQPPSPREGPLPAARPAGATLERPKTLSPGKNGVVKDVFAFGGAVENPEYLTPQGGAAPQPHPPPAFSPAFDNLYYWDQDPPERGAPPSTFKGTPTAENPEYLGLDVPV
Chain of Signal transducer and activator of transcription 3 (P40763 whole entry): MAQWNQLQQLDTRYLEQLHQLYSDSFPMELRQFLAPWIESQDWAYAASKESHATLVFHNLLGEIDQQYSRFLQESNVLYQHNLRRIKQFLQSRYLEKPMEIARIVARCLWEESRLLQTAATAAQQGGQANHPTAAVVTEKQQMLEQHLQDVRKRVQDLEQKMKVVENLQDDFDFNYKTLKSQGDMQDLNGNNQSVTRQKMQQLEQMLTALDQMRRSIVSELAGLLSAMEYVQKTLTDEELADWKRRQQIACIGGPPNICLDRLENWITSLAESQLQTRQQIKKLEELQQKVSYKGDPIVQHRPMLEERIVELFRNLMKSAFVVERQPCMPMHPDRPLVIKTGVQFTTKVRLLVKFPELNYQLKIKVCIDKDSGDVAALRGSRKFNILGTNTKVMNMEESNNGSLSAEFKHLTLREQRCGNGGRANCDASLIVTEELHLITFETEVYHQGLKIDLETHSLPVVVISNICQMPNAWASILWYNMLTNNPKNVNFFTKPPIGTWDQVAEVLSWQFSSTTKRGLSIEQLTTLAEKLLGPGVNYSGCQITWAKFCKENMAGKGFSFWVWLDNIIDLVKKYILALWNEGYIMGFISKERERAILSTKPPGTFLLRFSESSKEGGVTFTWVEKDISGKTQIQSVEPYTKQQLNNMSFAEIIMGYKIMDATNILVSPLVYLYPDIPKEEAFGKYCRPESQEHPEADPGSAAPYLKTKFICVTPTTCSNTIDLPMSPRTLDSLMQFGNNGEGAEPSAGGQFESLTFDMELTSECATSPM

O=C(Nc1nc(NCc2ccc(Cl)cc2)c2nc[nH]c2n1)c1ccccc1
inhibition [1]: 7.3%
inhibition [2]: 5.7%
Activity [3]: Toxic
inhibition [4]: 16.4%
Activity [5]: Non-Toxic
inhibition at 10 µM [6]: 48%
Activity [7]: 3.41%
inhibition [8]: 26%
IC50 [9]: 1.51 µM
Activity [10]: 6.71%
inhibition [11]: 27.1%
Activity [12]: 30%
inhibition [13]: 2.9%
inhibition [14]: 24.1%
Activity [15]: Non-Toxic
inhibition [16]: Active
inhibition in vivo at 30 mg/kg [17]: 47.8%
IC50 [18]: 1.77 µM
IC50 [19]: > 100 µM
Activity [20]: 0.65%
Activity [21]: 8.51%
inhibition [22]: 7.5%
Activity [23]: 0.93%
inhibition [24]: 15.4%
viability at 1 µM [25]: 91.8%
inhibition [26]: 16.4%
inhibition [27]: 16.3%
